Experimental data published in US12534441B2, “Tryptamine analogues” (priority 2021, dated 2026).

How the values were obtained:
[1] = system: serotonin (2a, 2b and 2c receptors); test: Serotonin receptor inositol phosphate 1 (IP1) assay (Multispan); assay type: cell-based, Human; details: percentage relative response vs 1 μM serotonin; FIG. 2
Description: Compounds 005, 008 and 018 were assayed using a serotonin (2a, 2b and 2c receptors) inositol phosphate 1 (IP1) assay, provided by Multispan. The reference used was 1 μM serotonin to calculate the percentage relative response. The results can be seen in FIG. 2.
IP-One Gq kit—cisbio—cat. No. 62IPAPEB
(§1) MULTISCREEN™ CHO-K1 Cell Line Stably Expressing Human 5-HT2A Receptor, Catalog DC1324-1
MULTISCREEN™ CHO-K1 Cell Line Stably Expressing Human 5-HT2B Receptor, Catalog DC1325-1
(§2) MULTISCREEN™ CHO-K1 Cell Line Stably Expressing Human 5-HT2C Receptor, Catalog DC1326-1

HTR2A = target: T1, HTR2A (Homo sapiens, UniProt P28223); test: B-arrestin assay (DiscoverX PathHunter), 2a receptor; assay type: cell-based; details: percentage relative response vs 10 μM serotonin; FIG. 4
T1 construct: host or cells: U2OS
Description: (§3) Compounds 005, 008 and 018 were assayed using a serotonin (1a, 1b, 2a and 2c receptors) B-arrestin assay, provided by DiscoverX. The reference used was 10 μM serotonin to calculate the percentage relative response. The results can be seen in FIG. 4. […] The compounds were also assayed in a serotonin 2b receptor B-arrestin assay, the results of which can be seen in FIG. 5.
HTR2A PathHunter® eXpress HTR2A U2OS β-Arrestin GPCR Assay 93-0401E3CP19M 200 dp (2×96-well)

[2] = system: serotonin (1a, 1b, 2a, 2c and 7 receptors); test: Serotonin receptor cAMP assay (Multispan, HTRF); assay type: cell-based, Human; details: percentage relative response vs 10 μM forskolin; serotonin control; FIG. 1
Description: Compounds 005, 008 and 018 were assayed using a serotonin (1a, 1b, 2a, 2c and 7 receptors) cAMP assay, provided by Multispan. The reference used was 10 μM forskolin (a cAMP activator) to calculate the percentage relative response, serotonin was used as the control. The results can be seen in FIG. 1.
cAMP Gs dynamic kit—cisbio—cat. No. 62AM4PEC
MULTISCREEN™ HEK293T Cell Line Stably Expressing Human 5-HT1A Receptor, Catalog DC1319a
MULTISCREEN™ HEK293T Cell Line Stably Expressing Human 5-HT1B Receptor, Catalog DC1320a
as §1, §2
MULTISCREEN™ HEK293T Cell Line Stably Expressing Human 5-HT7 Receptor, Catalog DC1334

5-HT2C Receptor = target: T2, 5-HT2C Receptor (Homo sapiens, UniProt P28335); test: Serotonin calcium (Ca2+) assay, 2c receptor; assay type: cell-based; details: percentage relative response vs 10 μM serotonin, RLU; FIG. 3
T2 construct: host or cells: CHO-K1
T2 sequence (P28335 33-458): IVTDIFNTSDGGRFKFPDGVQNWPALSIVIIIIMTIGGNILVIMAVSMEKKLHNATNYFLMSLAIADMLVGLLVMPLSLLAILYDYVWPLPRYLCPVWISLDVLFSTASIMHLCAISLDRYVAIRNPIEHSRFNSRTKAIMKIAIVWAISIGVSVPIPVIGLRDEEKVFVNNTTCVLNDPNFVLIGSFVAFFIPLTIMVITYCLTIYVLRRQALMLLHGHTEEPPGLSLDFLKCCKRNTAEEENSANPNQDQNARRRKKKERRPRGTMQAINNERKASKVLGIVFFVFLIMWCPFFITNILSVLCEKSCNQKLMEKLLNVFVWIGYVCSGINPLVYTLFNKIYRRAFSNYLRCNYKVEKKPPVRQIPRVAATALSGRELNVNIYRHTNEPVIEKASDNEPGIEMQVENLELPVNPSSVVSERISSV
Description: Compounds 005, 008 and 018 were assayed using a serotonin (2a, 2b and 2c receptors) calcium (Ca^2+) assay, provided by Multispan. The reference used was 10 μM serotonin to calculate the percentage relative response in relative light units (RLU). The results can be seen in FIG. 3. Some activity for compound 005 in the 2c receptor assay was detected.
FLIPR calcium 6 assay explorer kit—VWR—cat. No. MLDVR8190
as §2

HTR2C = target: T3, HTR2C (Homo sapiens, UniProt P28335); test: B-arrestin assay (DiscoverX PathHunter), 2c receptor; assay type: cell-based; details: percentage relative response vs 10 μM serotonin; FIG. 4
T3 construct: host or cells: U2OS
T3 sequence (P28335 33-458): T2 sequence (P28335 33-458)
Description: as §3
HTR2C PathHunter® eXpress HTR2C U2OS β-Arrestin GPCR Assay 93-0289E3CP3M 200 dp (2×96-well)

T1 sequence (P28223 whole entry): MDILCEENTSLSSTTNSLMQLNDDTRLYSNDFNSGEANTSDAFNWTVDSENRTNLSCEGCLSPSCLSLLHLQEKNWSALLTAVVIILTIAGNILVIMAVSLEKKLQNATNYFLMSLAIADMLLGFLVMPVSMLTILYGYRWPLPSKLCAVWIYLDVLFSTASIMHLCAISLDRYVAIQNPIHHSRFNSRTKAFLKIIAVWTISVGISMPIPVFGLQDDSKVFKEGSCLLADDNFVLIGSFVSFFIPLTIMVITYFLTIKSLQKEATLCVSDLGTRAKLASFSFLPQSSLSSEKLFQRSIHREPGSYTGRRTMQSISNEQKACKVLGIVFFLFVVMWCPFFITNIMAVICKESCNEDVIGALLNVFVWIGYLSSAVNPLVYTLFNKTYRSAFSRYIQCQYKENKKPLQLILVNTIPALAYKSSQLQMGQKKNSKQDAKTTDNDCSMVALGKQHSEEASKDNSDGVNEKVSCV

SMILES	IP1 assay result (response curves) [1]	B-arrestin assay activity, 2a receptor (HTR2A)	cAMP assay result (activation of the cAMP pathway) [2]	Ca2+ assay activity, 2c receptor (5-HT2C Receptor)	B-arrestin assay activity, 2c receptor (HTR2C)
CCN(C)CCc1c[nH]c2cccc(Oc3ccccn3)c12 [Compound 008, (S)-ethyl(methyl){2-[4-(pyridin-2-yloxy)-1H-indol-3-ylethyl}-azanium]	incomplete response curves in this assay, showing agonistic activity	Some activity			
CC(C)N(C)[C@H](C)Cc1c[nH]c2ccccc12 [Compound 018, (R)-[(2R)-1-(1H-indol-3-yl)propan-2-yl](methyl)(propan-2-yl)azanium]	incomplete response curves in this assay, showing agonistic activity	Some activity			
CCN(C)CCc1c[nH]c2cccc(OC(=O)Nc3ccccc3)c12 [Compound 005, (S)-ethyl(methyl)(2-{4-[(phenylcarbam-oyl)oxy]-1H-indol-3-yl}ethyl)azanium]	incomplete response curves in this assay, showing agonistic activity	Some activity	may have some activation of the cAMP pathway	Some activity	appeared to have activity
